How the values were obtained:
[1] = LNP characterization: size and PDI by dynamic light scattering, mRNA encapsulation efficiency by RiboGreen assay; format: physicochemical
Outline: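 Lipid nanoparticles made by microfluidic mixing of mRNA or plasmid in 100 mM sodium acetate with ethanolic lipid mix (Ignite: 3:1 flow ratio, 12 ml/min; Spark: N/P 4, 6 or 10), diluted in PBS pH 7.4. Z-average size and PDI by backscatter DLS (173°, 633 nm, 10 runs × 2 cycles). Encapsulation by RiboGreen assay.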

[2] = TNS fluorescence assay: experimental pKa of formulated lipid nanoparticles; format: physicochemical; details: experimental surface pKa of empty LNP, cationic lipid/DSPC/cholesterol/PEG-lipid (50/10/38.5/1.5)
Method: The pKa of each cationic lipid was determined in lipid nanoparticles using an assay based on fluorescence of 6-(p-Toluidino)-2-naphthalenesulfonic acid sodium salt (TNS, Sigma Aldrich), which is a fluorescent probe for the conformational state of proteins^5. Empty lipid nanoparticles comprising of cationic lipid/DSPC/cholesterol/PEG-lipid (50/10/38.5/1.5) in distilled water at a concentration of 3.125 mM total lipid are formulated using NanoAssemblr® Spark™, and were then was characterized for LNP quality on the Zetasizer™ using a 30× dilution with 1×PBS in the low volume cuvette. Lipid nanoparticles were further diluted 4× using distilled water to 0.781 mM total lipid. TNS was prepared as a 25 μM stock solution in distilled water. Then 6.4 μL of diluted LNP samples of 0.781 mM total lipid were mixed with 10 μL of diluted TNS to a final volume of 250 μL with buffer containing 10 mM HEPES, 10 mM MES, 10 mM NH4OAc and 130 mM NaCl where the pH ranged from 3 to 9 in 0.5 pH increments.
Samples were mixed thoroughly, and the fluorescence intensity was measured at room temperature in a BioTek™ Synergy™ H1 Hybrid Multi-Mode Monochromator™ Fluorescence Microplate Reader using excitation and emission wavelengths of 321 nm and 445 nm respectively. A sigmoidal best fit analysis was applied to the fluorescence data using GraphPad Prism™ software, and the pKa was measured as the pH at half-maximal fluorescence intensity.

[3] = 5-moU EPO encoded LNPs, IL:DSPC:cholesterol:DMG-PEG (50:10:38.5:1.5), N/P 6
[4] = Table 4 LNPs, payload and lipid mix not stated

Q: For `CC/C=C\CC1C(CC(=O)OCCC(CCCCCCCC)OC(=O)C(CCCCCC)CCCCCCCC)CCC1OC(=O)C1(C)CCN(C)CC1` (stereo not shown) [PNI 565], which “Diameter (Z. ave, nm)” value [1, 3] is on record?
A: 60.8 nm

Q: What about the “Encapsulation Efficiency (%)” value [1, 3] of the same compound?
A: 97.9%

Q: What about the “Polydispersity Index (PDI)” value [1, 3] of the same compound?
A: 0.03

Q: And the “Diameter (Z. ave, nm)” value [1, 4]?
A: 69.9 nm

Q: And the “Encapsulation Efficiency (%)” value [1, 4]?
A: 97.4%

Q: And the “Polydispersity Index (PDI)” value [1, 4]?
A: 0.03

Q: And the pKa [2]?
A: 5.99

— US12503432B2, “Ionizable lipids for nucleic acid delivery” (Global Life Sciences Solutions Canada ULC, priority 2019, dated 2025)
